We go through one molecule from patent US12428377B2, “Sodium-hydrogen exchanger 3 inhibitor compounds” (Eli Lilly and Company, priority 2019, dated 2025).

Where “and” joins values, the source holds several entries; their conditions need not be identical. Identical values can stand only once.

Assay type in all cases: in vivo, rat
Experiment [1] has as its system male Sprague Dawley rats. Kind of experiment: Phosphate absorption 15 min after radiolabeled phosphate (Example 2, Compound A, combination). To be noted: Compound A 10 mg/kg, plasma 15 min after radiolabeled phosphate, P=0.013 versus vehicle control. As to the method:
Effect of Example 2 in Combination with an NPT2b Inhibitor (Compound A) on Phosphate Absorption and Intestinal Phosphate Retention in Rats
(§1) The purpose of this study is to investigate in rats the effect of Example 2, Compound A, and an Example 2/Compound A combination on phosphate absorption 15 min after dosing the compounds and the phosphate retained in the intestine 4.25 h after dosing the compounds. The latter is a measure of the oral phosphate load which is absorbed over an extended period.
(§2) Two vehicles are used in this study: 1) 1% HEC and 2) 0.46% poly-1-vinylpyrrolidone-co-vinyl acetate in water (PVP-VA vehicle). The vehicle control group in this study receives a 1:1 combination of the two vehicles.
The Example 2, Compound A and phosphate dosing solutions are prepared similarly as described above, except the doses are 0.4 mg/kg for Example 2 and 10 mg/kg for Compound A and they are prepared at a concentration where they would be dosed in a 5 mL/kg volume. […]
Male Sprague Dawley rats are fasted 4 h and then administered appropriate vehicles, 10 mg/kg Compound A, 0.4 mg/kg Example 2, or a combination of both compounds. […] Radioactivity in plasma is measured by scintillation counting and used to calculate the inhibition of phosphate absorption. […] Statistical significance is determined by ANOVA with a Dunnett's comparison to the Example 2/Compound A combination using JMP 12.1.

In experiment [2] the test system is male Sprague Dawley rats. Kind of experiment: Intestinal phosphate retention: percent radiolabeled dose recovered in gastrointestinal tract. Conditions: Compound A 10 mg/kg, 4 h after radiolabeled phosphate. As to the method:
as §1, §2
The Example 2, Compound A and phosphate dosing solutions are prepared similarly as described above, except the doses are 0.4 mg/kg for Example 2 and 10 mg/kg for Compound A and they are prepared at a concentration where they would be dosed in a 5 mL/kg volume. The Example 2 and Compound A alone groups are mixed 1:1 with the vehicle of the other compound, while the Compound A and Example 2 are mixed 1:1 prior to dosing. The final dosing volume is 10 mL/kg in all cases.
4 h after the radiolabeled phosphate solution is dosed, stomach, small intestine, large intestine, and feces are collected, weighed and digested with 1N NaOH overnight at 37° C. Radioactivity in each fraction is measured by scintillation counting.
The percent dose recovered in gastrointestinal tract is defined as radioactivity recovered in stomach, small intestine, large intestine and feces compared to the amount dosed. Data is presented as mean±SEM with animal numbers equal to 8 for the groups. Statistical significance is determined by ANOVA with a Dunnett's comparison to the Example 2/Compound A combination using JMP 12.1.
The percent dose recovered in gastrointestinal tract data is further analyzed by a two-way ANOVA in JMP 12.1 to test for additivity of the effects of Example 2 and Compound A on inhibiting phosphate absorption. […] That is, the inhibitory effect of the combination is greater than the sum of the individual compound effects.

Experiment [3] deals with male Sprague Dawley rats. Kind of experiment: Radiolabeled phosphate absorption in rats, Studies 1-3 (plasma radioactivity). Conditions: for Absorption (vs. vehicle control): mean ± SEM. As to the method:
Effect of Example 2 in Combination with an NPT2b Inhibitor (Compound A) on Phosphate Absorption in Rats
NPT2b inhibitor dosing solutions: Compound A and poly-1-vinylpyrrolidone-co-vinyl acetate (PVP-VA, Sigma-Aldrich) are weighed into a bottle at a ratio of 30% Compound A and 70% PVP-VA by weight. A clear yellow solution is prepared by diluting the mixture in MeOH followed by the addition of 2 mol NaOH per mol Compound A using 5 N NaOH. The solution is spray dried by a stream of hot nitrogen and the solid dispersion powder is collected and then further dried in a vacuum oven. Doses for the sprayed dried solid dispersion (SDD) are expressed as active pharmaceutical ingredient (API) throughout.
To make the Compound A dosing solution, an appropriate amount of Compound A SDD is weighed in a vial and dissolved in water (10 mL/kg dosing volume). […] The subsequent solutions for lower doses are prepared by serial dilutions with water. PVP-VA at 7 mg/mL is used as a vehicle control.
NHE3 inhibitor dosing solutions: To make the Example 2 dosing solution, an appropriate amount of the compound is weighed in a vial and dissolved in 1% HEC (10 mL/kg dosing volume). […] The subsequent solutions for lower doses are prepared by serial dilutions with HEC.
To make the radiolabeled phosphate dosing solution, a 16.25 mM Na2HPO4, 0.9% saline, pH 7.4 solution is prepared and filtered using a sterile, 0.22 μm, polyethersulfone, Millex-GP Syringe Filter Unit (EMD Millipore). Radioactive phosphate (H3^33PO4, Perkin Elmer) is added at about 2.5 μCi per mL of the solution and filtered again.
Three separate studies are performed. In these studies, male Sprague Dawley rats, are randomized into groups with approximately equal mean body weights. Following an overnight fast, all the animals are dosed at 10 mL/kg with either vehicle, varying doses of Compound A (Study 1), varying doses of Example 2 (Study 2) or 1.2 mg/kg Compound A and varying doses of Example 2 (Study 3). 15 min later, radiolabeled phosphate is orally dosed in a 2 mL volume. 15 min later, blood is collected and plasma is prepared. Radioactivity (dpm) in 50 μL plasma is measured by scintillation counting and is used to calculate phosphate absorption. The results are normalized with the vehicle controls representing 100% absorption. The curves are fitted with nonlinear regression with variable slope using GraphPad Prism 6 to calculate the ED50 and Emax given in Table 7. […] No curve fit was performed for Compound A alone in Study 1.

One may read the % Inhibition as how much of the control response was suppressed. With `CC1(C)CN(C(=O)NCCCCO)CCN1Cc1cccc(C(=O)Nc2sc3c(c2C(=O)Nc2cc(F)c(CCc4ccc(C(=O)O)cc4)c(F)c2)CCCC3)c1` [Compound A, reference compound], the “Inhibition of phosphate absorption” value with male Sprague Dawley rats [1] was 35%. Besides, in the experiment on male Sprague Dawley rats [2], the “Percent Dose Recovered, Feces” value was <0.1%. The “Percent Dose Recovered, Large Intestine” value with male Sprague Dawley rats [2] (mean ± SEM) is 18.43 ± 2.03%. In addition, the “Percent Dose Recovered, Small Intestine” value in the experiment with male Sprague Dawley rats [2] (mean ± SEM) amounted to 8.98 ± 0.48%. In addition, the “Percent Dose Recovered, Stomach” value in the experiment with male Sprague Dawley rats [2] (mean ± SEM) is on record as 4.86 ± 1.13%. For the same molecule, the “Percent Dose Recovered, Total” value in the experiment with male Sprague Dawley rats [2] (mean ± SEM, 10 mg/kg) was 32% and 32.27 ± 1.38%. Also, the “Absorption (vs. vehicle control)” value in the experiment on male Sprague Dawley rats [3] (Study 1, rats, Compound A 0.01 mg/kg) worked out at 94.39 ± 7.88%; with male Sprague Dawley rats [3] (Study 1, rats, Compound A 0.1 mg/kg) it was 87.61 ± 6.08%; with male Sprague Dawley rats [3] (Study 1, rats, Compound A 1 mg/kg), 87.64 ± 7.26%; in the experiment with male Sprague Dawley rats [3] (Study 1, rats, Compound A 10 mg/kg) it was 81.53 ± 5.50%; with male Sprague Dawley rats [3] (Study 3, rats, Vehicle + Compound A 1.2 mg/kg), 71.00 ± 11.63%. Moreover, the “% Inhibition at the highest dose (phosphate absorption)” value in the experiment on male Sprague Dawley rats [3] (Study 1, rats, Compound A highest dose tested (10 mg/kg)) worked out at 18%.
